For 14 compounds, EC50 results are on record in patent US8754068B2, “Modified C-3 betulinic acid derivatives as HIV maturation inhibitors” (priority 2010, dated 2014).

Structures are written as SMILES.

As a reminder, the EC50 is the concentration that produces a half-maximal response.

The subject of this assay is recombinant NL4-3 virus (Renilla luciferase in nef, Gag P373S). The assay can be described thus: HIV cell culture assay (luciferase reporter virus in MT-2 cells). The following applies: NL43. It counts as cell-based. Summed up:
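Activity was read as luciferase output (Dual Luciferase reagents premixed with lysis solution) after 4–5 days of infection in serially diluted inhibitor. Host cells were MT-2 in 10% FBS RPMI. The reporter virus came from transfected 293T cells and was titered on MT-2.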
With `C=C(C)[C@@H]1CC[C@]2(CO)CC[C@]3(C)[C@H](CC[C@@H]4[C@@]5(C)CC=C(c6ccc(C(=O)O)c(O)c6)C(C)(C)[C@@H]5CC[C@]43C)[C@@H]12` [Example 5p, 2-hydroxy-4-((1R,3aS,5aR,5bR,7aR,11aS,11bR,13aR,13bR)-3a-(hydroxymethyl)-5a,5b,8,8,11a-pentamethyl-1-(prop-1-en-2-yl)-2,3,3a,4,5,5a,5b,6,7,7a,8,11,11a,11b,12,13,13a,13b-octadecahydro-1H-cyclopenta[a]chrysen-9-yl)benzoic acid], the EC50 was less than 1000 nM.

Turning to `C=C(C)[C@@H]1CC[C@]2(CO)CC[C@]3(C)[C@H](CC[C@@H]4[C@@]5(C)CC=C(c6cnc(C(=O)O)nc6)C(C)(C)[C@@H]5CC[C@]43C)[C@@H]12` [Example 5q, 5-((1R,3aS,5aR,5bR,7aR,11aS,11bR,13aR,13bR)-3a-(hydroxymethyl)-5a,5b,8,8,11a-pentamethyl-1-(prop-1-en-2-yl)-2,3,3a,4,5,5a,5b,6,7,7a,8,11,11a,11b,12,13,13a,13b-octadecahydro-1H-cyclopenta[a]chrysen-9-yl)pyrimidine-2-carboxylic acid], the half-maximal effective concentration (EC50) was greater than 1000 nM.

Regarding `C=C(C)[C@@H]1CC[C@]2(CO)CC[C@]3(C)[C@H](CC[C@@H]4[C@@]5(C)CC=C(c6ccc(C(=O)O)cc6C)C(C)(C)[C@@H]5CC[C@]43C)[C@@H]12` [Example 5r, 4-((1R,3aS,5aR,5bR,7aR,11aS,11bR,13aR,13bR)-3a-(hydroxymethyl)-5a,5b,8,8,11a-pentamethyl-1-(prop-1-en-2-yl)-2,3,3a,4,5,5a,5b,6,7,7a,8,11,11a,11b,12,13,13a,13b-octadecahydro-1H-cyclopenta[a]chrysen-9-yl)-3-methylbenzoic acid], the EC50 was less than 1000 nM.

`C=C(C)[C@@H]1CC[C@]2(CO)CC[C@]3(C)[C@H](CC[C@@H]4[C@@]5(C)CC=C(c6ccc(C(=O)O)c(C(F)(F)F)c6)C(C)(C)[C@@H]5CC[C@]43C)[C@@H]12` [Example 5s, 4-((1R,3aS,5aR,5bR,7aR,11aS,11bR,13aR,13bR)-3a-(hydroxymethyl)-5a,5b,8,8,11a-pentamethyl-1-(prop-1-en-2-yl)-2,3,3a,4,5,5a,5b,6,7,7a,8,11,11a,11b,12,13,13a,13b-octadecahydro-1H-cyclopenta[a]chrysen-9-yl)-2-(trifluoromethyl)benzoic acid]: the EC50 was less than 1000 nM.

As to `C=C(C)[C@@H]1CC[C@]2(CO)CC[C@]3(C)[C@H](CC[C@@H]4[C@@]5(C)CC=C(c6ccc(C(=O)O)c(C(=O)O)c6)C(C)(C)[C@@H]5CC[C@]43C)[C@@H]12` [Example 5t, 4-((1R,3aS,5aR,5bR,7aR,11aS,11bR,13aR,13bR)-3a-(hydroxymethyl)-5a,5b,8,8,11a-pentamethyl-1-(prop-1-en-2-yl)-2,3,3a,4,5,5a,5b,6,7,7a,8,11,11a,11b,12,13,13a,13b-octadecahydro-1H-cyclopenta[a]chrysen-9-yl)phthalic acid], the EC50 was less than 1000 nM.

For `C=C(C)[C@@H]1CC[C@]2(CO)CC[C@]3(C)[C@H](CC[C@@H]4[C@@]5(C)CC=C(c6ccc(C(=O)O)cn6)C(C)(C)[C@@H]5CC[C@]43C)[C@@H]12` [Example 5u, 6-((1R,3aS,5aR,5bR,7aR,11aS,11bR,13aR,13bR)-3a-(hydroxymethyl)-5a,5b,8,8,11a-pentamethyl-1-(prop-1-en-2-yl)-2,3,3a,4,5,5a,5b,6,7,7a,8,11,11a,11b,12,13,13a,13b-octadecahydro-1H-cyclopenta[a]chrysen-9-yl)nicotinic acid], the concentration for a half-maximal effect (EC50) was less than 1000 nM.

With `C=C(C)[C@@H]1CC[C@]2(C(=O)O)CC[C@]3(C)[C@H](CC[C@@H]4[C@@]5(C)CC=C(c6ccc(C(=O)NS(=O)(=O)C(C)C)cc6)C(C)(C)[C@@H]5CC[C@]43C)[C@@H]12` [Example 6a, (1R,3aS,5aR,5bR,7aR,11aS,13aR,13bR)-9-(4-(isopropylsulfonylcarbamoyl)phenyl)-5a,5b,8,8,11a-pentamethyl-1-(prop-1-en-2-yl)-2,3,3a,4,5,5a,5b,6,7,7a,8,11,11a,11b,12,13,13a,13b-octadecahydro-1H-cyclopenta[a]chrysene-3a-carboxylic acid], the concentration giving a half-maximal response (EC50) is less than 1000 nM.

On to `C=C(C)[C@@H]1CC[C@]2(C(=O)O)CC[C@]3(C)[C@H](CC[C@@H]4[C@@]5(C)CC=C(c6ccc(C(=O)NS(C)(=O)=O)cc6)C(C)(C)[C@@H]5CC[C@]43C)[C@@H]12` [Example 6b, (1R,3aS,5aR,5bR,7aR,11aS,13aR,13bR)-5a,5b,8,8,11a-pentamethyl-9-(4-(methylsulfonylcarbamoyl)phenyl)-1-(prop-1-en-2-yl)-2,3,3a,4,5,5a,5b,6,7,7a,8,11,11a,11b,12,13,13a,13b-octadecahydro-1H-cyclopenta[a]chrysene-3a-carboxylic acid], for which the half-maximal effective concentration (EC50) was less than 1000 nM.

For the compound `C=C(C)[C@@H]1CC[C@]2(C(=O)O)CC[C@]3(C)[C@H](CC[C@@H]4[C@@]5(C)CC=C(c6ccc(C(=O)OC)cc6)C(C)(C)[C@@H]5CC[C@]43C)[C@@H]12` [Example 7, (1R,3aS,5aR,5bR,7aR,11aS,11bR,13aR,13bR)-9-(4-(methoxycarbonyl)phenyl)-5a,5b,8,8,11a-pentamethyl-1-(prop-1-en-2-yl)-2,3,3a,4,5,5a,5b,6,7,7a,8,11,11a,11b,12,13,13a,13b-octadecahydro-1H-cyclopenta[a]chrysene-3a-carboxylic acid], the EC50 was greater than 1000 nM.

`C=C(C)[C@@H]1CC[C@]2(CO)CC[C@]3(C)[C@H](CC[C@@H]4[C@@]5(C)CC=C(c6cc(C(=O)O)[nH]n6)C(C)(C)[C@@H]5CC[C@]43C)[C@@H]12` [Example 8, 3-((1R,3aS,5aR,5bR,7aR,11aS,11bR,13aR,13bR)-3a-(hydroxymethyl)-5a,5b,8,8,11a-pentamethyl-1-(prop-1-en-2-yl)-2,3,3a,4,5,5a,5b,6,7,7a,8,11,11a,11b,12,13,13a,13b-octadecahydro-1H-cyclopenta[a]chrysen-9-yl)-1H-pyrazole-5-carboxylic acid]: the half-maximal effective concentration (EC50) is less than 1000 nM.

With `C=C(C)[C@@H]1CC[C@]2(CO)CC[C@]3(C)[C@H](CC[C@@H]4[C@@]5(C)CC=C(c6cc(C(=O)O)no6)C(C)(C)[C@@H]5CC[C@]43C)[C@@H]12` [Example 9, 5-((1R,3aS,5aR,5bR,7aR,11aS,11bR,13aR,13bR)-3a-(hydroxymethyl)-5a,5b,8,8,11a-pentamethyl-1-(prop-1-en-2-yl)-2,3,3a,4,5,5a,5b,6,7,7a,8,11,11a,11b,12,13,13a,13b-octadecahydro-1H-cyclopenta[a]chrysen-9-yl)isoxazole-3-carboxylic acid], the EC50 was less than 1000 nM.

For the compound `CC(C)[C@@H]1CC[C@]2(CO)CC[C@]3(C)[C@H](CC[C@@H]4[C@@]5(C)CC=C(c6ccc(C(=O)O)cc6)C(C)(C)[C@@H]5CC[C@]43C)[C@@H]12` [Example 10, 4-((1S,3aS,5aR,5bR,7aR,11aS,11bR,13aR,13bR)-3a-(hydroxymethyl)-1-isopropyl-5a,5b,8,8,11a-pentamethyl-2,3,3a,4,5,5a,5b,6,7,7a,8,11,11a,11b,12,13,13a,13b-octadecahydro-1H-cyclopenta[a]chrysen-9-yl)benzoic acid], the concentration giving a half-maximal response (EC50) is less than 1000 nM.

Turning to `C[C@H]1[C@H](C)CC[C@]2(C(=O)O)CC[C@]3(C)C(=CC[C@@H]4[C@@]5(C)CC=C(c6ccc(C(=O)O)cc6)C(C)(C)[C@@H]5CC[C@]43C)[C@H]12` [Example 12, (1S,2R,4aS,6aS,6bR,8aR,12aS,12bR,14bS)-10-(4-carboxyphenyl)-1,2,6a,6b,9,9,12a-heptamethyl-1,2,3,4,4a,5,6,6a,6b,7,8,8a,9,12,12a,12b,13,14b-octadecahydropicene-4-a-carboxylic acid], the 50% effective concentration (EC50) is less than 1000 nM.

Turning to `CC1(C)CC[C@]2(C(=O)O)CC[C@]3(C)C(=CC[C@@H]4[C@@]5(C)CC=C(c6ccc(C(=O)O)cc6)C(C)(C)[C@@H]5CC[C@]43C)[C@@H]2C1` [Example 13, (4aS,6aS,6bR,8aR,12aS,12bR,14bS)-10-(4-carboxyphenyl)-2,2,6a,6b,9,9,12a-heptamethyl-1,2,3,4,4a,5,6,6a,6b,7,8,8a,9,12,12a,12b,13,14b-octadecahydropicene-4-a-carboxylic acid], the EC50 was less than 1000 nM.
